Source: patent publication US20140296153A1, “Oligodendrocyte Differentiation” (priority 2011, published 2014)

Experiments:
Assay type in all cases: cell-based, mouse
[1] = tested on: SVZ cells; test: SVZ neurosphere forming assay (primary neurospheres)
Method: Neurosphere forming and self-renewal assays were performed on SVZ cells seeded at clonal density, 2500 cells per well in 24-well cell culture plates in SFM containing 5 ng/ml EGF and 2.5 ng/ml FGF-2 and supplemented or not (control) with 1 μM Hp or 50 ng.ml^−1 hepatocyte growth factor (carrier free recombinant human HGF, R&D Systems, Lille, France). After 6 days, the numbers of primary neurospheres were determined. For self-renewal assay, neurospheres were collected, dissociated as single cells and seeded in SFM containing 5 ng/ml EGF and 2.5 ng/ml FGF-2 in 24 well plates. After 6 days, the number of secondary neurospheres was counted.
Fluorescence images were recorded using an LSM 510 Meta confocal microscope or an Axioskop 2 Plus fluorescence microscope (both from Carl Zeiss). In all experiments, measurements were performed in the border of SVZ neurospheres where migrating cells form a cell monolayer. For the SVZ neurosphere forming and self-renewal assays the experiments were replicated in five independent culture preparations and each experimental condition was assayed in four different coverslips. For the remaining experiments, each condition was assayed in three different coverslips, and except where otherwise specified, the experiments were replicated in three independent culture preparations. Percentages of TUNEL or BrdU immunoreactive cells in SVZ cell cultures were calculated from cell counts in five independent microscopic fields in each coverslip with a x40 objective (approximately 200 cells per field). Software used was Axiovision, release 4.6 (Carl Zeiss). For SCCl experiments, the percentage of oligodendrocytic-like responding cells (with a Thromb/Hist ratio above 1.3) was calculated on the basis of one microscopic field per coverslip, containing approximately 100 cells (magnification, ×40).
Neural stem-like cells are characterized in vitro by both their capacity to give rise to neurospheres and to self-renew when cultured in the presence of mitogens.

[2] = tested on: SVZ cells; test: Single cell calcium imaging (SCCI) of oligodendrocytic differentiation; conditions: 7 days
Method: To investigate the influence of Hp on oligodendrocytic differentiation, SVZ neurospheres were allowed to develop for 7 days Hp (100 nm, 1 μM), in serum free medium devoid of growth factor at 37° C.
To determine the functional differentiation pattern of SVZ cells, we analyzed the variations of intracellular calcium-free levels ([Ca^2+]i) in single cells following stimulation with 50 mM KCl, 100 μM histamine (Sigma-Aldrich, St. Louis, Mo. USA) and 0.1 U/ml thrombin (Sigma-Aldrich) stimulation. KCl depolarization causes an increase in [Ca^2+]i in neurons, whereas stimulation with histamine leads to an increase in [Ca^2+]i in stem/progenitor cells, while thrombin leads to an increase in [Ca^2+]i in oligodendrocytes. SVZ cultures were loaded for 40 minutes with 5 μM Fura—2/AM (Molecular Probes, Carlsbad, Calif., USA), 0.1% fatty acid-free BSA, and 0.02% pluronic acid F-127 (Molecular Probes) in Krebs solution (132 mM NaCl, 4 mM KCl, 1.4 mM MgCl2, 1 mM CaCl2, 6 mM glucose, 10 mM HEPES, pH 7.4), in an incubator with 5% CO2 and 95% atmospheric air at 37° C. After a 10-minute postloading period at room temperature (RT) in the same medium without Fura-2/AM and pluronic acid, to obtain a complete hydrolysis of the probe, the glass coverslip was mounted on an RC-20 chamber in a PH3 platform (Warner Instruments, Hamden, Conn., USA) on the stage of an inverted fluorescence microscope (Axiovert 200, Carl Zeiss). […] The variations of [Ca^2+]i were evaluated by quantifying the ratio of the fluorescence emitted at 510 nm following alternate excitation (750 msec) at 340 and 380 nm, using a Lambda DG4 apparatus (Sutter Instrument, Novato, Calif., USA) and a 510 nm band-pass filter (Carl Zeiss) before fluorescence acquisition with a x40 objective and a CoolSNAP digital camera (Roper Scientific, Trenton, N.J., USA). […] KCl, histamine, and thrombin peaks given by the normalized ratios of fluorescence at 340/380 nm, at the proper time periods, were used to calculate the ratios of the responses to histamine/KCl (Hist/KCl-neuronal-like profile) and to thrombin/histamine (Throm/Hist-oligodendrocytic-like profile).
Fluorescence images were recorded using an LSM 510 Meta confocal microscope or an Axioskop 2 Plus fluorescence microscope (both from Carl Zeiss). […] Percentages of TUNEL or BrdU immunoreactive cells in SVZ cell cultures were calculated from cell counts in five independent microscopic fields in each coverslip with a x40 objective (approximately 200 cells per field). […] For SCCl experiments, the percentage of oligodendrocytic-like responding cells (with a Thromb/Hist ratio above 1.3) was calculated on the basis of one microscopic field per coverslip, containing approximately 100 cells (magnification, ×40). […]

[3] = tested on: Olig2; test: Immunocytochemistry for Olig2; conditions: Hp treatment
Method: Cells were fixed for 30 minutes in 4% paraformaldehyde in phosphate-buffered saline (PBS), permeabilized and blocked for non-specific binding sites for 1 h with 0.25% Triton X-100 (Sigma) and 3% bovine serum albumin (BSA, Sigma) dissolved in PBS. Cells were then subsequently incubated overnight at 4° C. with the following antibodies: rabbit polyclonal anti-CB1R (1:200, Proteimax), mouse monoclonal anti-nestin (1:200, Chemicon, Temecula, Calif., USA), mouse monoclonal anti-GFAP (1:500, Cell Signaling Technology, Danvers, Mass., USA) and rabbit polyclonal anti-Olig2 (1:200, Millipore, Billerica, Mass., USA). Thereafter, the cover slips were rinsed in PBS and incubated for 1 h at RT with the appropriate secondary antibodies: anti-rabbit IgG labeled with Alexa Fluor 488 (1:200) or anti-mouse IgG labeled with Alexa Fluor 594 (1:200) (both from Molecular Probes). After rinsing with PBS, cell preparations were incubated 5 min at RT with Hoechst 33342 (2 μg/mL, Molecular Probes) in PBS, for nuclear staining. Finally, the preparations were mounted using Dakocytomation fluorescent medium (Dakocytomation, Carpinteria, Calif., USA). Fluorescence images were recorded using a digital camera coupled to an Axioskop microscope (Carl Zeiss).

[4] = tested on: SVZ cells; test: SVZ self-renewal assay (secondary neurospheres); conditions: primary neurospheres exposed to Hp 1 μM for 6 days, replated without Hp

CC(C)C[C@H](NC(=O)[C@H](Cc1ccccc1)NC(=O)[C@H](CCCCN)NC(=O)[C@H](Cc1ccccc1)NC(=O)[C@H](CC(N)=O)NC(=O)[C@@H](NC(=O)[C@@H]1CCCN1)C(C)C)C(=O)N[C@@H](CO)C(=O)N[C@@H](Cc1cnc[nH]1)C(=O)O [Hp, PVNFKFLSH]
decrease of the number of primary neurospheres ([1]; 1 μm Hp during 6 days): 15%
number of primary neurospheres (control 100%) ([1]; Hp 1 μM, 6 days, SFM with 5 ng/ml EGF and 2.5 ng/ml FGF-2): 85.13±3.86%
cells responding with a Throm/Hist ratio above 1.3 (oligodendrocyte-like responding cells) ([2]; Hp 100 nM, 9 coverslips): 15.84±3.85%
cells responding with a Throm/Hist ratio above 1.3 (oligodendrocyte-like responding cells) ([2]; Hp 1 μM, 12 coverslips): 14.51±4.09%
cells responding with a Throm/Hist ratio above 1.3 (oligodendrocyte-like responding cells) ([2]; Hp treatment (100 nM or 1 μM), rounded): around 15%
number of Olig2-positive cells [3]: increased
number of secondary neurospheres (control 100%) [4]: 125.5±13.38%
